# Where “and” joins values, the source holds several entries; their conditions need not be identical. Identical values can stand only once.
# Legend:
# [1] = Drug release from liposomes into PBS at 37° C. over 24 hours, Example 1; type: physicochemical; conditions: release from liposomal formulation
# Protocol: The release profile of drug from liposomes was studied using Amicon Ultra mini dialysis filters supplied by Millipore Sigma (Burlington, Mass.) at sink conditions^59. A tenfold dilution of each liposomal formulation in PBS was kept in the mini dialysis filter at 37° C. above a 1.1 ml PBS reservoir. Samples were placed on a plate shaker for constant agitation. […] All PBS reservoirs were analyzed for released drug content using HPLC.
# [2] = test system: 4T1 murine breast cancer cells; test: In vitro cellular inhibition (MTT) and synergy quantification; type: cell-based
# Protocol: 4T1 cells were seeded in 96 well plates at a density of 500 cells/well. Cells were given 24 hours to adhere to the well plate. Afterwards, a series of ten drug or drug combination dilutions prepared in fresh media were administered to the cells, with a starting concentration of 100 μM. The drugs were incubated with the cells for 72 hours before the media was removed and replaced with 0.5 mg/ml of MTT reagent in media fresh media. The MTT reagent was left incubating with the cells for 4 hours, during which living cells metabolized the reagent to form solid formazan crystals. Afterwards, the MTT reagent in media was removed, and the crystallized formazan was dissolved in DMSO. The plate is shaken at 300 rpm for 15 minutes to fully dissolve the formazan crystals, and absorbance was measured at 590 nm via Spectramax i3 plate reader. The fraction of cells inhibited at a certain drug concentration was calculated by: […]
# where A is the average absorbance of the treated wells, A0 is the average absorbance of the blank wells with DMSO, and AC is the average absorbance of the control untreated wells. The IC50 values for each treatment was then determined through fitting of the Hill equation for dose-response in GraphPad™. The Hill equation is given as follows: […]
# with X as the drug concentration and Y as the fractional inhibition, and m is known as the Hill coefficient and is determined according to the fit.
# To evaluate drug efficacy against 4T1, drugs were evaluated as single drugs and as combination treatments with DOX. Synergy was quantified using the combination index (CI)^10. The formula for CI is as follows:
# Where [AC]50 and [BC]50 represent the IC50 of drugs A and B when given in combination, and the denominator represents the IC50 of single drugs A and B. CI<1 indicates synergy, while a CI=1 indicates additive effects, and a CI>1 indicates antagonism.
# 4T1 cells = test: Calreticulin exposure on 4T1 cells; type: cell-based, murine; conditions: 10 μM DOX, compared to untreated controls
# Protocol: Cells for antibody staining and flow cytometry studies were plated in 6-well plates in 3 ml of media and allowed to adhere overnight. […] Treatment was administered approximately 24 h after plating. Cells were harvested using 0.5 ml of trypsin and resuspended to establish 10^6 cells in 100 μl of cell staining buffer. Cells were washed once and incubated at room temperature with 1% CD16/32 in 100 μl of cell staining buffer. After another wash, cells were incubated for 30 min on ice with fluorescently labeled antibodies (Table 12) to distinguish tumor antigens or characteristic markers of immune cell subtypes. Antibody-stained cells were then washed twice before analysis with a BD LSRII flow cytometer.
# [3] = Mus musculus, 72 h, free drugs and free drug combinations, 500 cells/well
# [4] = free drugs and free drug combinations, 72 hours, 500 cells/well
# [5] = free drugs and free drug combinations
IRIN released within 24 hours [1],"IC50 [2, 3] [nM]","IC50 [2, 4] [nM]","IC50 ([2]; Mus musculus, free drug) [nM]",Structure (SMILES),"Hill coefficient, HC [2, 5]",fold increase in calreticulin exposure on 4T1 cells (4T1 cells) [fold]
less than 40%,14000,14000 ± 700,,"CCc1c2c(nc3ccc(OC(=O)N4CCC(N5CCCCC5)CC4)cc13)-c1cc3c(c(=O)n1C2)COC(=O)[C@]3(O)CC [IRIN, irinotecan]",,
,12 ± 0.3,,12 ± 0.3,"Nc1ccn([C@@H]2O[C@H](CO)[C@@H](O)C2(F)F)c(=O)n1 [GEM, gemcitabine]",1.8±0.09 and 1.83 ± 0.09,
,,36,,"COc1cccc2c1C(=O)c1c(O)c3c(c(O)c1C2=O)C[C@@](O)(C(=O)CO)C[C@@H]3O[C@H]1C[C@H](N)[C@H](O)[C@H](C)O1 [DOX, Doxorubicin]",0.75 ± 0.04,1.8
